# Assay results as given in ChEMBL document CHEMBL5053549, “Discovery of Potent and Novel Dual PARP/BRD4 Inhibitors for Efficient Treatment of Pancreatic Cancer” (J Med Chem, 2021).
# Tests used:
# [1] = molecular target: Poly [ADP-ribose] polymerase 1 (Homo sapiens, UniProt P09874); test: Inhibition of PARP1 (unknown origin) incubated for 45 mins in presence of biotinylated-NAD+ by microplate reader analysis
# [2] = molecular target: T1, Bromodomain-containing protein 4 (Homo sapiens, UniProt O60885); test: Inhibition of recombinant BRD4 (unknown origin) incubated for 120 mins by TR-FRET assay
# [3] = molecular target: T1, Bromodomain-containing protein 4; test: Inhibition of recombinant BRD4 (unknown origin) at 0.5 uM incubated for 120 mins by TR-FRET assay relative to control
# [4] = tested on: SW1990; test: Antiproliferative activity against human SW1990 cells assessed as reduction in cell viability after 4 days by MTT assay; format: functional, cell-based; details: SW1990, 96 h
# [5] = tested on: MDA-MB-231; test: Antiproliferative activity against human MDA-MB-231 cells assessed as reduction in cell viability after 7 days; format: functional, cell-based; details: MDA-MB-231, 168 h
# Poly [ADP-ribose] polymerase 1, sequence (P09874 whole entry): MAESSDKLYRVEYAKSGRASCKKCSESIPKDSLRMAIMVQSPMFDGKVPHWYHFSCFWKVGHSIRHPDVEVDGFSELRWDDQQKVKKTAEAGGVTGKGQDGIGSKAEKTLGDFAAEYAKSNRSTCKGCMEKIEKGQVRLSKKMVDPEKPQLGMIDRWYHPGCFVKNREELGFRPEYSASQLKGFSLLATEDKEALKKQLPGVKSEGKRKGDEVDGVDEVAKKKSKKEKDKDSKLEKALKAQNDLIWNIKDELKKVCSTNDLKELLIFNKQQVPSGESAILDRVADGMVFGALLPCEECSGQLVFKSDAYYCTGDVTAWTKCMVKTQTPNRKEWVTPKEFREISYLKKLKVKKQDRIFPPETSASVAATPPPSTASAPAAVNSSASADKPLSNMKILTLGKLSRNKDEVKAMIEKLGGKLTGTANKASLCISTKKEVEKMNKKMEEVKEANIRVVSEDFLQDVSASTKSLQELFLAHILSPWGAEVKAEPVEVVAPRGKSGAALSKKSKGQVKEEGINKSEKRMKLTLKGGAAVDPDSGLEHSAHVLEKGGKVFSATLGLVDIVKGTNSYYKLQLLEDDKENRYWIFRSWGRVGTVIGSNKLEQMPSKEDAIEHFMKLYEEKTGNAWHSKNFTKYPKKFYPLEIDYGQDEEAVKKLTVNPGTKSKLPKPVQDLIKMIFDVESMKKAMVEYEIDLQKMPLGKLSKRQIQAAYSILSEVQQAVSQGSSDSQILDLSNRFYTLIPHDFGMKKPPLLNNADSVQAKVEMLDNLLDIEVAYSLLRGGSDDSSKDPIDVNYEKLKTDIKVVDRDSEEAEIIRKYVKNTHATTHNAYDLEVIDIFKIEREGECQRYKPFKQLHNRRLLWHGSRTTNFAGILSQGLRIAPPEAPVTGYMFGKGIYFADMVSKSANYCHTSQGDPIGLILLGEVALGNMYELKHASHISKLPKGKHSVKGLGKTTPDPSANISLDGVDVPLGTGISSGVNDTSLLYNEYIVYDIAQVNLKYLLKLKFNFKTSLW
IC50 [1],IC50 [2],inhibition [3],IC50 [4],IC50 [5],Structure (SMILES)
461 nM,,21%,,,CC[C@@H]1C(=O)N(C)c2cnc(Nc3ccc(-c4nc5c(C(N)=O)cccc5[nH]4)cc3OC)nc2N1Cc1ccccc1
306 nM,,86%,2450 nM,790 nM,CCOc1cc(-c2nc3c(C(N)=O)cccc3[nH]2)ccc1Nc1ncc2c(n1)N(C1CCCC1)[C@H](CC)C(=O)N2C
25 nM,202 nM,,1530 nM,460 nM,COc1cc(-c2nc3c(C(N)=O)cccc3[nH]2)ccc1N(C)c1ncc2c(n1)N(C1CCCC1)[C@H](C)C(=O)N2C
355 nM,186 nM,,3120 nM,810 nM,CC[C@@H]1C(=O)N(C)c2cnc(Nc3ccc(Cc4nc5c(C(N)=O)cccc5[nH]4)cc3OC)nc2N1C1CCCC1

# Further lines, the compound ahead of its results:
Structure (SMILES),IC50 [1],IC50 [2],inhibition [3],IC50 [4],IC50 [5]
CC[C@@H]1C(=O)N(C)c2cnc(Nc3ccc(CC(=O)NCc4nc5c(C(N)=O)cccc5[nH]4)cc3OC)nc2N1C1CCCC1,498 nM,276 nM,,,
CC[C@@H]1C(=O)N(C)c2cnc(Nc3ccc(C(=O)NCc4nc5c(C(N)=O)cccc5[nH]4)cc3OC)nc2N1C1CCCC1,341 nM,374 nM,,,
COc1cc(-c2nc3c(C(N)=O)cccc3[nH]2)ccc1Nc1ncc2c(n1)N(C1CCCC1)[C@H](C)C(=O)N2C,127 nM,250 nM,,1620 nM,470 nM
CC[C@@H]1C(=O)N(C)c2cnc(Nc3ccc(C(C)c4nc5c(C(N)=O)cccc5[nH]4)cc3OC)nc2N1C1CCCC1 (stereo partly drawn),236 nM,,74%,,
CC[C@@H]1C(=O)N(C)c2cnc(Nc3ccc(-c4nc5c(C(N)=O)cccc5[nH]4)cc3)nc2N1C1CCCC1,43 nM,842 nM,,2810 nM,830 nM
